{"source": "ChEMBL document CHEMBL1133291", "about": "“The discovery of non-basic atrial natriuretic peptide clearance receptor antagonists. Part 1” (Bioorg Med Chem Lett, 2000)", "key": {"[1]": {"target": "T1, Atrial natriuretic peptide receptor 3 (Homo sapiens, UniProt P17342)", "T1 sequence (P17342 whole entry)": "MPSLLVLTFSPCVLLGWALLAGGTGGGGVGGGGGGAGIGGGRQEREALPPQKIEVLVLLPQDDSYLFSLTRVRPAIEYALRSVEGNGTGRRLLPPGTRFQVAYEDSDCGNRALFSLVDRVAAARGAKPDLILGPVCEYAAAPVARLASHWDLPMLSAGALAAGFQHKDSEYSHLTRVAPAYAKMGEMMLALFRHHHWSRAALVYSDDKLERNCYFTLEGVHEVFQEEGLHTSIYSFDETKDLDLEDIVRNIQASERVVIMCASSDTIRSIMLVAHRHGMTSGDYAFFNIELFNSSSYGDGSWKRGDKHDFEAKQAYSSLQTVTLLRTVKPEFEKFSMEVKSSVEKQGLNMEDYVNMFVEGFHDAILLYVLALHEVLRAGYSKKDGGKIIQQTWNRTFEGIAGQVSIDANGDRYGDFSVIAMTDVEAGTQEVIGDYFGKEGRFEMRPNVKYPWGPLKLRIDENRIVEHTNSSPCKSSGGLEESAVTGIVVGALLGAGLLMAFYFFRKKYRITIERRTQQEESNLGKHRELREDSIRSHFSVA", "assay": "Displacement of [125I]- ANP from the Atrial Natriuretic Peptide Clearance Receptor.", "format": "tissue-based, Cardiac atrium"}, "[2]": {"target": "T2, Atrial natriuretic peptide receptor 1 (Homo sapiens, UniProt P16066)", "T2 sequence (P16066 whole entry)": "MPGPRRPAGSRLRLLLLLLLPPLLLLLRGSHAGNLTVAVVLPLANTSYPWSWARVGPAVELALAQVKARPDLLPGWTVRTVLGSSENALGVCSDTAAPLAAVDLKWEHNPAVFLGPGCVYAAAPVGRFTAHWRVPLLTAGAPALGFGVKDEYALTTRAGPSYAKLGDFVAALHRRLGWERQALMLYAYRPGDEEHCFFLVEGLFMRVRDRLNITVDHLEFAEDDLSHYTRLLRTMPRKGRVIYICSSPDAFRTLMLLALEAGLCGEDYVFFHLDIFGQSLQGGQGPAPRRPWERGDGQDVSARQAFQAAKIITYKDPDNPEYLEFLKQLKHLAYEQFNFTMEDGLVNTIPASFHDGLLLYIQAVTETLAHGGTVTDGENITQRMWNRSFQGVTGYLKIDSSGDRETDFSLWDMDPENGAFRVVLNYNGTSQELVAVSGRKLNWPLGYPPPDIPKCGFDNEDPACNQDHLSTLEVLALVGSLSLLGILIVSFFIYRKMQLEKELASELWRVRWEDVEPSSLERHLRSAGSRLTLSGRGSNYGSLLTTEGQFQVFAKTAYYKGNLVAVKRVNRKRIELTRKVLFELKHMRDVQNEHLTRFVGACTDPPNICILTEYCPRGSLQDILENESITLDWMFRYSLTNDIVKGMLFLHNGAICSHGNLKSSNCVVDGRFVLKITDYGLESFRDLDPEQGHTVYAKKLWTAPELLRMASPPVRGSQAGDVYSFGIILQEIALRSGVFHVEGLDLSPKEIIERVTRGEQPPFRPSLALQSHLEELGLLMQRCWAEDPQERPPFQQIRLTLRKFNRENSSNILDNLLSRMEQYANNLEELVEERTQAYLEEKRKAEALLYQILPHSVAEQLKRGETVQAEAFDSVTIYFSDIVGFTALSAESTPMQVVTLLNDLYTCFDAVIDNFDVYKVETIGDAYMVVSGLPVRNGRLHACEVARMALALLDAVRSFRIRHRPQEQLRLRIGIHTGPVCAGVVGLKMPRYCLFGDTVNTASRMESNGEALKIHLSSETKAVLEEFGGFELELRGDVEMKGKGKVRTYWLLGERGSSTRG", "assay": "Displacement of [125I]- ANP from the Atrial natriuretic peptide receptor A.", "format": "tissue-based, Cardiac atrium"}, "[3]": {"assay": "Ratio of binding affinity for ANP-CR receptor and ANP-A receptor"}}, "note": "Numbered stars: 1 amine (or outer) side, 2 acyl side, 3 side chain; on linkers, the order of the positions; unused ones are H or OH. Square brackets hold non-standard residues; d marks the D form. Peptide text beside a SMILES is read from it. * marks the point of attachment. NH(2S-methylbutyl) = CC[C@H](C)CN*; 2Naphthoyl = O=C(c1ccc2ccccc2c1)*; X1 = O=C(Cc1ccc(N[*:1])cc1)[*:2]; PhAc = O=C(Cc1ccccc1)*; X2 = CCC[C@H](C)CN*"}
{"smiles": "CC[C@H](C)[C@@H]1NC(=O)[C@H](C)NC(=O)CNC(=O)CNC(=O)[C@H](Cc2ccccc2)NC(=O)[C@H](N)CSSC[C@H](C(=O)O)NC(=O)CNC(=O)[C@H](CC(C)C)NC(=O)CNC(=O)[C@H](CO)NC(=O)[C@H](CCC(N)=O)NC(=O)[C@H](C)NC(=O)CNC(=O)[C@H]([C@@H](C)CC)NC(=O)[C@H](CCCN=C(N)N)NC(=O)[C@H](CC(=O)O)NC1=O", "values": [{"measurement": "Ki", "setting": "[1]", "result": 0.49, "unit": "nM"}, {"measurement": "Ki", "setting": "[2]", "result": 0.49, "unit": "nM"}]}
{"smiles": "CC[C@H](C)[C@@H]1NC(=O)[C@H](CCCNC(=N)N)NC(=O)[C@H](CC(=O)O)NC(=O)[C@H]([C@@H](C)CC)NC(=O)[C@H](CCCNC(=N)N)NC(=O)CNC(=O)CNC(=O)[C@H](Cc2ccccc2)NC(=O)[C@@H](NC(=O)[C@H](CO)NC(=O)[C@H](CO)NC(=O)[C@@H](N)CCCNC(=N)N)CSSC[C@@H](C(=O)O)NC(=O)[C@H](C)NC(=O)CNC1=O", "values": [{"measurement": "Ki", "setting": "[1]", "result": 1.64, "unit": "nM"}]}
{"smiles": "CC[C@H](C)[C@@H]1NC(=O)[C@H](CCCN=C(N)N)NC(=O)[C@H](CC(=O)O)NC(=O)[C@H]([C@@H](C)CC)NC(=O)[C@H](CCCN=C(N)N)NC(=O)CNC(=O)CNC(=O)[C@H](Cc2ccccc2)NC(=O)[C@H](NC(=O)[C@H](CO)NC(=O)[C@H](CO)NC(=O)[C@@H](N)CCCN=C(N)N)CSSC[C@H](C(=O)O)NC(=O)[C@H](C)NC(=O)CNC1=O", "values": [{"measurement": "Selectivity", "setting": "[3]", "result": 6100}, {"measurement": "Ki", "setting": "[2]", "result": "> 10", "unit": "nM"}]}
{"smiles": "CC[C@H](C)[C@@H]1NC(=O)[C@H](CCCN=C(N)N)NC(=O)[C@H](C)NC(=O)[C@H]([C@@H](C)CC)NC(=O)[C@H](CCCN=C(N)N)NC(=O)CNC(=O)CNC(=O)[C@H](Cc2ccccc2)NC(=O)[C@H](N)CSSC[C@H](C(=O)O)NC(=O)CNC(=O)[C@H](CC(C)C)NC(=O)CNC(=O)[C@H](CO)NC(=O)[C@H](CCC(N)=O)NC(=O)[C@H](C)NC(=O)CNC1=O", "values": [{"measurement": "Ki", "setting": "[1]", "result": 87, "unit": "nM"}, {"measurement": "Ki", "setting": "[2]", "result": 87, "unit": "nM"}]}
{"smiles": "CC[C@H](C)CNC(=O)[C@H](C)NC(=O)[C@H](CC(=O)O)NC(=O)[C@@H](NC(=O)[C@H](C)NC(=O)Cc1ccc(NC(=O)c2ccc3ccccc3c2)cc1)[C@@H](C)CC", "note": "(2Naphthoyl-[X1]AIDA-{NH(2S-methylbutyl)})", "values": [{"measurement": "Ki", "setting": "[1]", "result": 65, "unit": "nM"}, {"measurement": "Ki", "setting": "[2]", "result": 65, "unit": "nM"}]}
{"smiles": "CC[C@H](C)CNC(=O)[C@H](CCCN=C(N)N)NC(=O)[C@H](CC(=O)O)NC(=O)[C@@H](NC(=O)[C@H](C)NC(=O)Cc1ccc(NC(=O)c2ccc3ccccc3c2)cc1)[C@@H](C)CC", "note": "(2Naphthoyl-[X1]AIDR-{NH(2S-methylbutyl)})", "values": [{"measurement": "Ki", "setting": "[1]", "result": 0.3, "unit": "nM"}, {"measurement": "Ki", "setting": "[2]", "result": 0.3, "unit": "nM"}]}
{"smiles": "CC[C@H](C)CNC(=O)[C@H](CCCN=C(N)N)NC(=O)[C@H](CC(=O)O)NC(=O)[C@H](C)NC(=O)[C@H](CCCN=C(N)N)NC(=O)Cc1ccc(NC(=O)c2ccc3ccccc3c2)cc1", "note": "(2Naphthoyl-[X1]RADR-{NH(2S-methylbutyl)})", "values": [{"measurement": "Ki", "setting": "[1]", "result": 680, "unit": "nM"}, {"measurement": "Ki", "setting": "[2]", "result": 680, "unit": "nM"}]}
{"smiles": "CC[C@H](C)CNC(=O)[C@H](CCCNC(=N)N)NC(=O)[C@H](C)NC(=O)[C@@H](NC(=O)[C@H](CCCNC(=N)N)NC(=O)Cc1ccc(NC(=O)c2ccc3ccccc3c2)cc1)[C@@H](C)CC", "note": "(2Naphthoyl-[X1]RIAR-{NH(2S-methylbutyl)})", "values": [{"measurement": "Ki", "setting": "[1]", "result": 62, "unit": "nM"}, {"measurement": "Ki", "setting": "[2]", "result": 62, "unit": "nM"}]}
{"smiles": "CC[C@H](C)CNC(=O)[C@H](C)NC(=O)[C@H](CC(=O)O)NC(=O)[C@@H](NC(=O)[C@H](CCCN=C(N)N)NC(=O)Cc1ccc(NC(=O)c2ccc3ccccc3c2)cc1)[C@@H](C)CC", "note": "(2Naphthoyl-[X1]RIDA-{NH(2S-methylbutyl)})", "values": [{"measurement": "Ki", "setting": "[1]", "result": 0.4, "unit": "nM"}, {"measurement": "Ki", "setting": "[2]", "result": 0.4, "unit": "nM"}]}
{"smiles": "CC[C@H](C)[C@H](NC(=O)[C@H](CCCNC(=N)N)NC(=O)Cc1ccc(NC(=O)c2ccc3ccccc3c2)cc1)C(=O)N[C@@H](CC(=O)O)C(=O)N[C@@H](CCCNC(=N)N)C(N)=O", "note": "(2Naphthoyl-[X1]RIDR-NH2)", "values": [{"measurement": "Ki", "setting": "[1]", "result": 2600, "unit": "nM"}, {"measurement": "Ki", "setting": "[2]", "result": 2600, "unit": "nM"}]}
{"smiles": "CC[C@H](C)CNC(=O)[C@H](CCCN=C(N)N)NC(=O)[C@H](CC(=O)O)NC(=O)[C@@H](NC(=O)[C@H](CCCN=C(N)N)NC(=O)Cc1ccc(NC(=O)c2ccc3ccccc3c2)cc1)[C@@H](C)CC", "note": "(2Naphthoyl-[X1]RIDR-{NH(2S-methylbutyl)})", "values": [{"measurement": "Selectivity", "setting": "[3]", "result": "> 20000"}, {"measurement": "Ki", "setting": "[1]", "result": 0.48, "unit": "nM"}, {"measurement": "Ki", "setting": "[2]", "result": "> 10", "unit": "nM"}]}
{"smiles": "CCC[C@H](C)CNC(=O)[C@H](CCCNC(=N)N)NC(=O)[C@H](CC(=O)O)NC(=O)[C@@H](NC(=O)[C@H](CCCNC(=N)N)NC(C)=O)[C@@H](C)CC", "note": "(Ac-RIDR-X2)", "values": [{"measurement": "Ki", "setting": "[1]", "result": 2900, "unit": "nM"}, {"measurement": "Ki", "setting": "[2]", "result": 2900, "unit": "nM"}]}
{"smiles": "CCC[C@H](C)CNC(=O)[C@H](CCCN=C(N)N)NC(=O)[C@H](CC(=O)O)NC(=O)[C@@H](NC(=O)[C@H](CCCN=C(N)N)NC(=O)Cc1ccccc1)[C@@H](C)CC", "note": "(PhAc-RIDR-X2)", "values": [{"measurement": "Ki", "setting": "[1]", "result": 539, "unit": "nM"}, {"measurement": "Ki", "setting": "[2]", "result": 539, "unit": "nM"}]}
